The values below come from patent publication US20160355530A1, “HEPATITIS C INHIBITORS AND USES THEREOF” (AbbVie Inc., priority 2010, published 2016).

Read-outs that look alike come from different tables or passages of the source.

Assay [1] relates to chimeric replicon with genotype 4a NS5B. Put plainly: microbe, parasite or virus in culture. Format: cell-based, HCV genotype 4a. Particulars: Hepatitis C virus, read-out: 4a chimera 5% FBS EC50.
For assay [2], the system named is HCV 1b-BB7 subgenomic replicon. Put plainly: microbe, parasite or virus in culture. It counts as cell-based, HCV genotype 1b. To be noted: Hepatitis C virus, stable replicon.
In assay [3] the test system is chimeric replicon with genotype 3a NS5B. Put plainly: microbe, parasite or virus in culture. Format: cell-based, HCV genotype 3a. To be noted: Hepatitis C virus, read-out: 3a chimera 5% FBS EC50.
Assay [4] deals with HCV 1a-H77 subgenomic replicon. Put plainly: microbe, parasite or virus in culture. Format: cell-based, HCV genotype 1a. To be noted: Hepatitis C virus, stable replicon.
Assay [5] has as its system chimeric replicon with 2a-J6CF-derived NS5B. Put plainly: microbe, parasite or virus in culture. It counts as cell-based, HCV genotype 2a. To be noted: Hepatitis C virus, read-out: 2a chimera 5% FBS EC50.
Assay [6] addresses T1, HCV NS5B polymerase 1a-H77 (Hepatitis C virus genotype 1a, UniProt P27958).
T1 construct: six-histidine tag; made in house; host or cells: E. coli
Put plainly: biochemical. Set-up: species or system HCV genotype 1a. To be noted: enzyme, strain 1a H77; read-out: HCV Polymerase Strain 1a H77 IC50. In short, it runs like this:
(§1)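 E. coli-expressed NS5B (residues 1-570, His-tagged) transcribed a 2.1 kb HCV 1b negative-strand 3′-end RNA template (5 nM) with 20 μM CTP, 20 μM ATP and 0.284 μM [3H]UTP for 3 h at 30° C. Spermine-precipitated RNA was filter-captured and counted by scintillation; IC50 from nonlinear regression.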

Assay [7] has as its system HCV NS5B polymerase 1a-H77-C316Y. Put plainly: biochemical. Particulars: ratio of enzyme IC50s, 1a H77-C316Y / 1a H77. Set-up: species or system HCV genotype 1a. The method in brief:
as §1

The target in assay [8] is T2, HCV NS5B polymerase 1a-H77-C316Y (Hepatitis C virus genotype 1a, UniProt P27958, C2736Y).
T2 construct: six-histidine tag; made in house; host or cells: E. coli
T2 sequence (P27958 2421-2990 C2736Y): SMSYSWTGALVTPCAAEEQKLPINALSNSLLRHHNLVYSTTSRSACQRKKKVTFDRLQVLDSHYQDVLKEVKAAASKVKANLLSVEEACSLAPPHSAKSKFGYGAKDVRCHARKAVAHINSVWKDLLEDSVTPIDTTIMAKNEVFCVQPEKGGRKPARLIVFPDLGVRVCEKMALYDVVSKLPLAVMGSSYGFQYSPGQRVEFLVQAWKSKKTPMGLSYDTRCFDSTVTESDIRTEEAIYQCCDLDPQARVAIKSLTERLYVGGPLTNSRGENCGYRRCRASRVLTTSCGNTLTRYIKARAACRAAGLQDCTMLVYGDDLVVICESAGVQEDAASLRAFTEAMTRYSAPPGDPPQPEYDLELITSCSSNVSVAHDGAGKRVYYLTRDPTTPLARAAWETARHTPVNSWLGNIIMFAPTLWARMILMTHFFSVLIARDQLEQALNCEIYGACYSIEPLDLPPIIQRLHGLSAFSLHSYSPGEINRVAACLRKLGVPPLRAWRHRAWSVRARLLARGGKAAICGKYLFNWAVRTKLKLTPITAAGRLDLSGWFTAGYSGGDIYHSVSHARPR
Put plainly: biochemical. Details: species or system HCV genotype 1a. The method in brief: as §1

The target of assay [9] is T3, HCV NS5B polymerase 1b BK strain (Hepatitis C virus genotype 1b, UniProt P26663).
T3 construct: six-histidine tag; made in house; host or cells: E. coli
T3 sequence (P26663 2420-2989): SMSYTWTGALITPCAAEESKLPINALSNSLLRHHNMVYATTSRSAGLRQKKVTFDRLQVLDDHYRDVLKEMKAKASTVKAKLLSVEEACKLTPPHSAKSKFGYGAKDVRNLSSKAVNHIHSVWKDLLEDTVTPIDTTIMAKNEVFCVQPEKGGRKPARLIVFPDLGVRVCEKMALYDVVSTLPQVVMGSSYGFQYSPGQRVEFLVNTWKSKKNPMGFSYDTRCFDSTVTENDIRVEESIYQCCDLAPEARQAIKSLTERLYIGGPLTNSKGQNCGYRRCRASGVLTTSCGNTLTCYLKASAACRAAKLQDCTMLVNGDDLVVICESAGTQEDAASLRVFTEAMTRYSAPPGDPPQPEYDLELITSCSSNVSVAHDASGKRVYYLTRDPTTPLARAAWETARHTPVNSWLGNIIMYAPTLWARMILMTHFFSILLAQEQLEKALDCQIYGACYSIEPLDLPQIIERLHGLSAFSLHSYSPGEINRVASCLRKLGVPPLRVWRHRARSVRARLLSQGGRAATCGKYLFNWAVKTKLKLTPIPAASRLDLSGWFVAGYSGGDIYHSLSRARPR
Put plainly: HCV NS5B polymerase enzymatic inhibition assay, strain 1b BK. It counts as biochemical. To be noted: enzyme, strain 1b BK; read-out: HCV Polymerase Strain 1b BK IC50. The method in brief: as §1

In assay [10] the test system is chimeric replicon with genotype 2b NS5B. Put plainly: microbe, parasite or virus in culture. Particulars: Hepatitis C virus, read-out: 2b chimera 5% FBS EC50. It counts as cell-based, HCV genotype 2b.
Setting [11] is: strain 1b BB7, 5% FBS + 40% human plasma, read-out: 1b BB7 5% FBS + 40% Human Plasma EC50.
[12] abbreviates: strain 1b BB7, 5% FBS, no human plasma, read-out: 1b BB7 5% FBS EC50.
Setting [13] is: strain 1b BB7, 5% FBS, read-out: 1b BB7 5% FBS EC50.
Setting [14] is: 5% FBS, absence of human plasma, read-out: Stable Replicon 1a H77 5% FBS EC50.
Where [15] appears, read: strain 1a H77, 5% FBS + 40% human plasma, read-out: 1a H77 5% FBS + 40% Human Plasma EC50.
Setting [16] is: strain 1a H77, 5% FBS, no human plasma, read-out: 1a H77 5% FBS EC50.
[17] abbreviates: strain 1a H77, 5% FBS, read-out: 1a H77 5% FBS EC50.

T1 sequence (P27958 2421-2990): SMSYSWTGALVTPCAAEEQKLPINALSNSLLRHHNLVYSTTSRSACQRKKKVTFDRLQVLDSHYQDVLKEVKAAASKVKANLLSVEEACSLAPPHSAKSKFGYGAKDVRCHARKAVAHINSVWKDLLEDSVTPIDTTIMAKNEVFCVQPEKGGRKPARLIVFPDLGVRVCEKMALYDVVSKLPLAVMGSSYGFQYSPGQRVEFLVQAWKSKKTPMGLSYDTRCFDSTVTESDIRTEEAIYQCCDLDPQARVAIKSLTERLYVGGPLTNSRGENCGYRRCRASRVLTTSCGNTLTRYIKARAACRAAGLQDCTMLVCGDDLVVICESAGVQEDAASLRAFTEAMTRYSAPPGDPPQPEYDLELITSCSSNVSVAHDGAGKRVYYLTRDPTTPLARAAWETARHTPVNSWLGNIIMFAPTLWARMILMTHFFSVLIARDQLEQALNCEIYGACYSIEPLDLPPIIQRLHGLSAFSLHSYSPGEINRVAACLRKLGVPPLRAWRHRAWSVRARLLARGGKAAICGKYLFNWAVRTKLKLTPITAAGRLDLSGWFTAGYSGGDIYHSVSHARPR

As to `CCCCCN(c1cc2oc(-c3ccc(F)cc3)c(-c3ncc[nH]3)c2cc1C1CC1)S(C)(=O)=O` [Example 70, N-[5-cyclopropyl-2-(4-fluorophenyl)-3-(1H-imidazol-2-yl)-1-benzofuran-6-yl]-N-pentylmethanesulfonamide], the EC50 in [1] worked out at 285 nM; in [2] (setting [11]), 298 nM; in assay [2] (setting [12]) it was 35.6 nM; in assay [2] (setting [13]), 35.6 nM; in assay [3], 26.8 nM; in assay [4] (setting [14]) it was 41.8 nM. Also, the EC50 in [4] (setting [15]) turned out to be 641 nM; in [4] (setting [16]) it was 41.8 nM; in assay [4] (setting [17]), 41.8 nM; in assay [5], 173 nM; in assay [10] it was 234 nM. Moreover, the IC50 in assay [6] was determined as 8.5 nM; in assay [8] it was 69 nM; in assay [9], 24 nM. Moreover, in assay [7], the “C316Y/1a Fold Resistance” value is on record as 8 fold.

Take `C[S+]([O-])c1ccc(-c2ncc(CN(c3ccc4c(-c5ncc[nH]5)c(-c5ccccc5)oc4c3)S(C)(=O)=O)s2)cc1` (stereo not drawn) [Example 24, N-[3-(1H-imidazol-2-yl)-2-phenyl-1-benzofuran-6-yl]-N-({2-[4-(methylsulfinyl)phenyl]-1,3-thiazol-5-yl}methyl)methanesulfonamide]: the EC50 in assay [1] turned out to be 362 nM; in assay [2] (setting [11]) it was 3850 nM; in [2] (setting [12]) it was 12.4 nM; in assay [2] (setting [13]), 12.4 nM; in [3], 5.4 nM; in assay [4] (setting [14]), 157 nM. The EC50 in assay [4] (setting [15]) turned out to be 10000 nM; in assay [4] (setting [16]) it was 157 nM; in assay [4] (setting [17]), 157 nM; in assay [5] it was 206 nM; in [10], 193 nM. In addition, the IC50 in assay [6] was determined as 6.9 nM; in assay [8] it was 36 nM; in assay [9], 18 nM. For the same compound, in assay [7], the “C316Y/1a Fold Resistance” value is 5 fold.

With `CC(C)(O)CCN(c1cc2oc(-c3ccc(F)cc3)c(C3=NOCCN3)c2cc1C1CC1)S(C)(=O)=O` [Example 125, N-[5-cyclopropyl-3-(5,6-dihydro-4H-1,2,4-oxadiazin-3-yl)-2-(4-fluorophenyl)-1-benzofuran-6-yl]-N-(3-hydroxy-3-methylbutyl)methanesulfonamide], the EC50 in assay [1] is 85 nM; in [2] (setting [11]) it was 347 nM; in [2] (setting [12]) it was 20 nM; in [2] (setting [13]), 20 nM; in [3] it was 50 nM; in assay [4] (setting [14]) it was 12.6 nM. In addition, the EC50 in assay [4] (setting [15]) came to 156 nM; in assay [4] (setting [16]) it was 12.6 nM; in [4] (setting [17]), 12.6 nM; in assay [5], 222 nM; in assay [10], 182 nM. Also, the IC50 in assay [6] turned out to be 11 nM; in [8], 112 nM; in assay [9] it was 60 nM. In addition, the “C316Y/1a Fold Resistance” value in assay [7] was determined as 10 fold.

For `CS(=O)(=O)N(CC1CCOCC1)c1cc2oc(-c3ccc(F)cc3)c(-c3ncc[nH]3)c2cc1C1CC1` [Example 38, N-[5-cyclopropyl-2-(4-fluorophenyl)-3-(1H-imidazol-2-yl)-1-benzofuran-6-yl]-N-(tetrahydro-2H-pyran-4-ylmethyl)methanesulfonamide], the EC50 in [1] is 161 nM; in [2] (setting [11]), 245 nM; in assay [2] (setting [12]), 12.7 nM; in assay [2] (setting [13]), 12.7 nM; in assay [3] it was 25.2 nM; in assay [4] (setting [14]), 10.2 nM. In addition, the EC50 in assay [4] (setting [15]) was 117 nM; in assay [4] (setting [16]) it was 10.2 nM; in assay [4] (setting [17]) it was 10.2 nM; in [5], 88.2 nM; in assay [10] it was 81.4 nM. For the same compound, the IC50 in assay [6] amounted to 5 nM; in assay [8] it was 148 nM; in assay [9], 33 nM. In addition, the “C316Y/1a Fold Resistance” value in assay [7] is on record as 30 fold.

Regarding `CCN(CC)CCCN(c1cc2oc(-c3ccc(F)cc3)c(C3=NOCCN3)c2cc1C1CC1)S(C)(=O)=O` [Example 131, N-[5-cyclopropyl-3-(5,6-dihydro-4H-1,2,4-oxadiazin-3-yl)-2-(4-fluorophenyl)-1-benzofuran-6-yl]-N-[3-(diethylamino)propyl]methanesulfonamide], the EC50 in [1] was found to be 782 nM; in assay [2] (setting [11]) it was 102 nM; in assay [2] (setting [12]), 26 nM; in assay [2] (setting [13]), 26 nM; in [3], 131 nM; in assay [4] (setting [14]), 122 nM. Further, the concentration for a half-maximal effect (EC50) in assay [4] (setting [15]) came to 350 nM; in assay [4] (setting [16]), 122 nM; in assay [4] (setting [17]), 122 nM; in [5] it was 380 nM; in [10] it was 446 nM. Moreover, the IC50 in assay [6] worked out at 30.2 nM; in assay [8], 876 nM; in assay [9], 171 nM. The “C316Y/1a Fold Resistance” value in assay [7] was 29 fold.

On to `CC(=O)CCCCN(c1cc2oc(-c3ccc(F)cc3)c(-c3ncc[nH]3)c2cc1C1CC1)S(C)(=O)=O` [Example 77, N-[5-cyclopropyl-2-(4-fluorophenyl)-3-(1H-imidazol-2-yl)-1-benzofuran-6-yl]-N-(5-oxohexyl)methanesulfonamide], for which the EC50 is 42.7 nM in assay [1]; 47 nM in assay [2] (setting [11]); 5.7 nM in assay [2] (setting [12]); 5.7 nM in assay [2] (setting [13]); 4.9 nM in assay [3]; 6 nM in assay [4] (setting [14]). Also, the EC50 in assay [4] (setting [15]) was found to be 66 nM; in assay [4] (setting [16]) it was 6 nM; in assay [4] (setting [17]), 6 nM; in assay [5] it was 32.5 nM; in assay [10] it was 26.8 nM. Also, the values for the IC50 in [6], in assay [8] and in assay [9] were 5 nM, 49 nM and 10 nM, respectively. Also, the “C316Y/1a Fold Resistance” value in assay [7] was 10 fold.

Regarding `CS(=O)(=O)N(CCCC(F)(F)F)c1cc2oc(-c3ccc(F)cc3)c(C3=NOCCN3)c2cc1C1CC1` [Example 117, N-[5-cyclopropyl-3-(5,6-dihydro-4H-1,2,4-oxadiazin-3-yl)-2-(4-fluorophenyl)-1-benzofuran-6-yl]-N-(4,4,4-trifluorobutyl)methanesulfonamide], the EC50 in [1] came out at 233 nM; in assay [2] (setting [11]) it was 245 nM; in [2] (setting [12]), 30 nM; in assay [2] (setting [13]) it was 30 nM; in [3] it was 31 nM; in assay [4] (setting [14]), 22 nM. Further, the EC50 in assay [4] (setting [15]) was determined as 159 nM; in assay [4] (setting [16]), 22 nM; in [4] (setting [17]), 22 nM; in [5] it was 214 nM; in [10], 240 nM. The figures for the IC50 in assay [6], in assay [8] and in [9] were 4.5 nM, 36 nM and 31 nM, respectively. The “C316Y/1a Fold Resistance” value in assay [7] is recorded as 8 fold.

With `CS(=O)(=O)N(CCCC(F)(F)F)c1cc2oc(-c3ccc(F)cc3)c(-c3ncc[nH]3)c2cc1C1CC1` [Example 44, N-[5-cyclopropyl-2-(4-fluorophenyl)-3-(1H-imidazol-2-yl)-1-benzofuran-6-yl]-N-(4,4,4-trifluorobutyl)methanesulfonamide], the EC50 came to 176 nM in assay [1]; 81 nM in [2] (setting [11]); 16.1 nM in assay [2] (setting [12]); 16.1 nM in [2] (setting [13]); 15.1 nM in assay [3]; 23.7 nM in [4] (setting [14]). The EC50 in assay [4] (setting [15]) was determined as 420 nM; in assay [4] (setting [16]), 23.7 nM; in assay [4] (setting [17]), 23.7 nM; in [5], 93.7 nM; in [10], 97.7 nM. Further, the IC50 in assay [6] turned out to be 5 nM; in assay [8], 105 nM; in assay [9], 19 nM. Further, in [7], the “C316Y/1a Fold Resistance” value came to 21 fold.
